Results as given in ChEMBL document CHEMBL1201862, “PubChem BioAssay data set” (2004).
Active and inactive are the calls of the source.

Assays:
Type in all cases: functional
[1] = target: T1, Sentrin-specific protease 8 (Homo sapiens, UniProt Q96LD8);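 also: luminescence read-out of SENP8 inhibition, dose-response confirmation following an ultra-high-throughput screen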
T1 sequence (Q96LD8 whole entry): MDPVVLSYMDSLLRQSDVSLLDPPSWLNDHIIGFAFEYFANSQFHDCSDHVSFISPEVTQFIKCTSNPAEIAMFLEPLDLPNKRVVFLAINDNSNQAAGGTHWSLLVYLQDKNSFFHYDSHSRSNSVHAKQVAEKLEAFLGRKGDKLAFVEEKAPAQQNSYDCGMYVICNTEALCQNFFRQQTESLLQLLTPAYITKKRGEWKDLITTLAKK

[2] = target: T2, Serine/threonine-protein kinase TBK1 (Homo sapiens, UniProt Q9UHD2); assay: Navigating the Kinome. Panel member name: TBK1
T2 sequence (Q9UHD2 whole entry): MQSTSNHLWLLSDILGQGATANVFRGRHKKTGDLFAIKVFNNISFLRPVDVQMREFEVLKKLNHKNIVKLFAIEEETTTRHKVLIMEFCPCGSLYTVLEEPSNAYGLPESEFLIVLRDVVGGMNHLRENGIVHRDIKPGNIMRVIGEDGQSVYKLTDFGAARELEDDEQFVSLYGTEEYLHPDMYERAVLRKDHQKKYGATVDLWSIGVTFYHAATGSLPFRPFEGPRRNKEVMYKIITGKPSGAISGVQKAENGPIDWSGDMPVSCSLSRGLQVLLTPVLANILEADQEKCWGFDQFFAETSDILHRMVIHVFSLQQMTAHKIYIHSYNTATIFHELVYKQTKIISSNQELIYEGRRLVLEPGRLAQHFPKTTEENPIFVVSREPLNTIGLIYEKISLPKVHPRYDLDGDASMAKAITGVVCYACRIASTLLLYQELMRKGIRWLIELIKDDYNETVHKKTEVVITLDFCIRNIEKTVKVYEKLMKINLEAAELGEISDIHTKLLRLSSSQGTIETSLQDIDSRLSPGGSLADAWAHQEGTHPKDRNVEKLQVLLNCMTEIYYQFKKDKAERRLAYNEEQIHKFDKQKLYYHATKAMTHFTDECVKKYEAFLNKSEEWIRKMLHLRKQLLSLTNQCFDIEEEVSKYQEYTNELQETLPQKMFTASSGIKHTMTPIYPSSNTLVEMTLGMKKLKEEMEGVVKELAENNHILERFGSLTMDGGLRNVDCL

[3] = target: Glycogen synthase kinase-3 beta (Homo sapiens, UniProt P49841);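 also: value comes from a broad kinome profiling panel, with GSK3B as the panel member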
[4] = target: T3, Serine/threonine-protein kinase Chk1 (Homo sapiens, UniProt O14757);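 also: measured as one member of a kinome-wide kinase profiling panel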
T3 sequence (O14757 whole entry): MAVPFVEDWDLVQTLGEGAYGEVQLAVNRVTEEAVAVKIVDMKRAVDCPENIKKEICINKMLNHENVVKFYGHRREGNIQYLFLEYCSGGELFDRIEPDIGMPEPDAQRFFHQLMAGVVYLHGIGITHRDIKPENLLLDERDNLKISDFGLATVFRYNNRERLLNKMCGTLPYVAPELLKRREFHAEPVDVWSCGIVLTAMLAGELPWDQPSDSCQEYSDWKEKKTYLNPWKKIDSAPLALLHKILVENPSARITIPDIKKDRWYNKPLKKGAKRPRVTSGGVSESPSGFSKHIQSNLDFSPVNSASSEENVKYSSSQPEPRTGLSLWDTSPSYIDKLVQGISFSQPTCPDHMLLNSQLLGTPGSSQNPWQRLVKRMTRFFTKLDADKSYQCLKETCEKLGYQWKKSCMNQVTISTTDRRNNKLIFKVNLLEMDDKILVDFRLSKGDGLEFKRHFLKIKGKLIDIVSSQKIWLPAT

[5] = target: Leucine-rich repeat serine/threonine-protein kinase 2 (Homo sapiens, UniProt Q5S007);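 also: value from a broad kinome-wide panel profiling study in which LRRK2 was one of the kinases tested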
[6] = target: 5'-AMP-activated protein kinase catalytic subunit alpha-1 (Homo sapiens, UniProt Q13131)
[7] = target: T4, Serine/threonine-protein kinase Nek2 (Homo sapiens, UniProt P51955)
T4 sequence (P51955 whole entry): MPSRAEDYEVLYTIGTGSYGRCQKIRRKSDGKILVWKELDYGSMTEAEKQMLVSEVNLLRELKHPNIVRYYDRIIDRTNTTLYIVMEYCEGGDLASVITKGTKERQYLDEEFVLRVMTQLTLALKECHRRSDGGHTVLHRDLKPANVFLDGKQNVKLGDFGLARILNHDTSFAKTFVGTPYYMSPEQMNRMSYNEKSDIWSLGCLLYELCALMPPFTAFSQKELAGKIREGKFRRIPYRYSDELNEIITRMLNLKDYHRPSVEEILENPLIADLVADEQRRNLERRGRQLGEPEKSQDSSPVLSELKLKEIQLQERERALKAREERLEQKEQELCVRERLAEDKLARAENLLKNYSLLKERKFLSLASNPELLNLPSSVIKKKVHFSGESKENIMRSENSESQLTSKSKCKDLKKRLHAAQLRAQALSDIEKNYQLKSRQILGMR

[8] = target: Glycogen synthase kinase-3 alpha (Homo sapiens, UniProt P49840);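 also: GSK3A result taken from a broad kinome-wide kinase panel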
[9] = target: Cyclin-dependent kinase 9 (Homo sapiens, UniProt P50750);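 also: value from the CDK9 entry of a kinome-spanning kinase panel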
[10] = target: Cyclin-dependent kinase 8 (Homo sapiens, UniProt P49336); assay: Navigating the Kinome. Panel member name: CDK8
[11] = target: Mitogen-activated protein kinase kinase kinase kinase 4 (Homo sapiens, UniProt O95819)
[12] = target: Leukocyte tyrosine kinase receptor (Homo sapiens, UniProt P29376); assay: Navigating the Kinome. Panel member name: LTK
[13] = target: Serine/threonine-protein kinase pim-1 (Homo sapiens, UniProt P11309)
[14] = target: Cyclin-dependent kinase 7 (Homo sapiens, UniProt P50613);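 also: value comes from a kinome-wide kinase profiling panel in which CDK7 is one member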

Chain of Glycogen synthase kinase-3 beta (P49841 whole entry): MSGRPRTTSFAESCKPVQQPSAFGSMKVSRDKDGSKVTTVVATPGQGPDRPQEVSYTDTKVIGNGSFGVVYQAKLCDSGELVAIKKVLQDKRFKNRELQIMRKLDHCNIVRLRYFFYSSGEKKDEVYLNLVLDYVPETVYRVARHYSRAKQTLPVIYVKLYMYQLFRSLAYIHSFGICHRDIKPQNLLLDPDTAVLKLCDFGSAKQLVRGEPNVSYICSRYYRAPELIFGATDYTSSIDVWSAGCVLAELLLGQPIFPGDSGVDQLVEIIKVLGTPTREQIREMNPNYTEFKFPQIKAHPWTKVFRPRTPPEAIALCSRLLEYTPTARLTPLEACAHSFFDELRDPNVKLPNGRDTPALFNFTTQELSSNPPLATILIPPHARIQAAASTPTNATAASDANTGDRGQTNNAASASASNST
Chain of Cyclin-dependent kinase 9 (P50750 whole entry): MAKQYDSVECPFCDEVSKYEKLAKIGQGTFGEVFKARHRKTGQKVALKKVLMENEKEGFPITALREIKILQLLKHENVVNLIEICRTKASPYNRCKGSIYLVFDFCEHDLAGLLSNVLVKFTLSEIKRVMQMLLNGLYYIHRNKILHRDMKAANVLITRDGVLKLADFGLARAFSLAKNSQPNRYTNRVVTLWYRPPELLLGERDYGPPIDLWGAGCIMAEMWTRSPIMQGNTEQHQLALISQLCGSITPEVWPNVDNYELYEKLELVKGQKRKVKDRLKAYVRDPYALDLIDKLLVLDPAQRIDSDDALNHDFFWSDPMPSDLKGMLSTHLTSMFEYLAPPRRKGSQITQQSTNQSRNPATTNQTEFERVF
Chain of Serine/threonine-protein kinase pim-1 (P11309 whole entry): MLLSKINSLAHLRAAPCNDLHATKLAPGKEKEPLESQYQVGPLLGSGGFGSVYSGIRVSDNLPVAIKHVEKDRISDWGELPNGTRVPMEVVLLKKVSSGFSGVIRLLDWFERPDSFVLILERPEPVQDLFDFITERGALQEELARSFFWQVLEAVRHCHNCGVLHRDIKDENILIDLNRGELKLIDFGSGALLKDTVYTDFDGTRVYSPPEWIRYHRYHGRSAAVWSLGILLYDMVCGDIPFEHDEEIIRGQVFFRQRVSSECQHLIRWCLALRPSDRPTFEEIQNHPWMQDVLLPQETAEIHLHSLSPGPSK
Chain of 5'-AMP-activated protein kinase catalytic subunit alpha-1 (Q13131 whole entry): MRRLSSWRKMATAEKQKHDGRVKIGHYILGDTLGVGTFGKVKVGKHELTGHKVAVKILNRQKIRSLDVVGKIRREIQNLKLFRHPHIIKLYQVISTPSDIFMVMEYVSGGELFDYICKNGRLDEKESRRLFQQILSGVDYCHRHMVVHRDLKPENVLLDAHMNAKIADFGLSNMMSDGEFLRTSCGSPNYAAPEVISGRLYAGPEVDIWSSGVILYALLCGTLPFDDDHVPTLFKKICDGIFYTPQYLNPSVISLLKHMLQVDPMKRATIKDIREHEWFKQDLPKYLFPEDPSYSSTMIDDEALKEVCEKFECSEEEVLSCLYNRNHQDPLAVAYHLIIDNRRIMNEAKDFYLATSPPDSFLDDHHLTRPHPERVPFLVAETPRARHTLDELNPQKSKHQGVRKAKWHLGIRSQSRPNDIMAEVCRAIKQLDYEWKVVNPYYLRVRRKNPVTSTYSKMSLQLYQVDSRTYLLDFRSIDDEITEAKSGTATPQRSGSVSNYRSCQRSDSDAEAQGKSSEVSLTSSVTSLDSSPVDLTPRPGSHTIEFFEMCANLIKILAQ
Chain of Glycogen synthase kinase-3 alpha (P49840 whole entry): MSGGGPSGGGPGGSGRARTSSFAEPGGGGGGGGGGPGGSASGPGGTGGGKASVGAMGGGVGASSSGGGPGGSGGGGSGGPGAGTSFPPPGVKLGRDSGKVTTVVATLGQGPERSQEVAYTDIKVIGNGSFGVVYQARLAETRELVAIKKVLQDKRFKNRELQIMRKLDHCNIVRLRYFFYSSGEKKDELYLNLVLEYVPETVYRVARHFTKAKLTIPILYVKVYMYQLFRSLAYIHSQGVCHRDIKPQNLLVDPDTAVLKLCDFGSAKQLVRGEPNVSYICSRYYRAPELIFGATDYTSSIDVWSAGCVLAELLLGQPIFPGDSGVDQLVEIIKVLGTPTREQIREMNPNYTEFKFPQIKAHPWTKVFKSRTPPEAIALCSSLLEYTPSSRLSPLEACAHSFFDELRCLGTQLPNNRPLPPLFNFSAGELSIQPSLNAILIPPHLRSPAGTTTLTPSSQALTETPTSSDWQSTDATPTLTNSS
Chain of Mitogen-activated protein kinase kinase kinase kinase 4 (O95819 whole entry): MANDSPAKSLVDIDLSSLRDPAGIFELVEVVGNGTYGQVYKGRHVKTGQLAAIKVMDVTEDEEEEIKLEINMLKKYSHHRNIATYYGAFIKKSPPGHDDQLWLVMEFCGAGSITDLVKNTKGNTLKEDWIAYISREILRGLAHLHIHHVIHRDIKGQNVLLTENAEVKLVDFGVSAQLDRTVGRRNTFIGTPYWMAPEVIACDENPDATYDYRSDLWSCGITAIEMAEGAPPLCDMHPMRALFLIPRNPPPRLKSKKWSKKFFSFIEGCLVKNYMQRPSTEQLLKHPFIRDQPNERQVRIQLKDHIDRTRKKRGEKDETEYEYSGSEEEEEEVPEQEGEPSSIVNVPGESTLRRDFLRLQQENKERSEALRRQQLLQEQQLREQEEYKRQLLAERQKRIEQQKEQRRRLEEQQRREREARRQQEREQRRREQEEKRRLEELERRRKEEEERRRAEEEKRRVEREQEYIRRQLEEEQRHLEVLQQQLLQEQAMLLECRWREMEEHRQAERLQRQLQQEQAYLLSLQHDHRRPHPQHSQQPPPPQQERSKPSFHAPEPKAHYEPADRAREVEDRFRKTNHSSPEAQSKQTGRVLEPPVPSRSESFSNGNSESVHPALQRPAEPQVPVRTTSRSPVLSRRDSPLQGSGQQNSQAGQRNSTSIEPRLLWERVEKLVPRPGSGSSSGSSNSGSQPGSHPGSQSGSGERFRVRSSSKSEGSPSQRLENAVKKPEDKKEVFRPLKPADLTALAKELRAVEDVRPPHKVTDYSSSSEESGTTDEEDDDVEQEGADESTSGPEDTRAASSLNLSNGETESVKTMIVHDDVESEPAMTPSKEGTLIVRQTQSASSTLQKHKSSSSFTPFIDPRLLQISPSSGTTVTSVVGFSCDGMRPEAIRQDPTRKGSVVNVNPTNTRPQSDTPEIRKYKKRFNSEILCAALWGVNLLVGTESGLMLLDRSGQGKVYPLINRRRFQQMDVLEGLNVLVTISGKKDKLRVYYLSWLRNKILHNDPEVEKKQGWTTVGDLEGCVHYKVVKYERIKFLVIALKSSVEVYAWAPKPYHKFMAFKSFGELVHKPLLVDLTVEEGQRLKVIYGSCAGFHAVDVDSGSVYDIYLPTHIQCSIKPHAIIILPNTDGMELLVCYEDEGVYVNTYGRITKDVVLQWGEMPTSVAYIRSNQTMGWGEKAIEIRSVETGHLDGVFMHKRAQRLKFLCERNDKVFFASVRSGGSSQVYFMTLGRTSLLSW
Chain of Leukocyte tyrosine kinase receptor (P29376 whole entry): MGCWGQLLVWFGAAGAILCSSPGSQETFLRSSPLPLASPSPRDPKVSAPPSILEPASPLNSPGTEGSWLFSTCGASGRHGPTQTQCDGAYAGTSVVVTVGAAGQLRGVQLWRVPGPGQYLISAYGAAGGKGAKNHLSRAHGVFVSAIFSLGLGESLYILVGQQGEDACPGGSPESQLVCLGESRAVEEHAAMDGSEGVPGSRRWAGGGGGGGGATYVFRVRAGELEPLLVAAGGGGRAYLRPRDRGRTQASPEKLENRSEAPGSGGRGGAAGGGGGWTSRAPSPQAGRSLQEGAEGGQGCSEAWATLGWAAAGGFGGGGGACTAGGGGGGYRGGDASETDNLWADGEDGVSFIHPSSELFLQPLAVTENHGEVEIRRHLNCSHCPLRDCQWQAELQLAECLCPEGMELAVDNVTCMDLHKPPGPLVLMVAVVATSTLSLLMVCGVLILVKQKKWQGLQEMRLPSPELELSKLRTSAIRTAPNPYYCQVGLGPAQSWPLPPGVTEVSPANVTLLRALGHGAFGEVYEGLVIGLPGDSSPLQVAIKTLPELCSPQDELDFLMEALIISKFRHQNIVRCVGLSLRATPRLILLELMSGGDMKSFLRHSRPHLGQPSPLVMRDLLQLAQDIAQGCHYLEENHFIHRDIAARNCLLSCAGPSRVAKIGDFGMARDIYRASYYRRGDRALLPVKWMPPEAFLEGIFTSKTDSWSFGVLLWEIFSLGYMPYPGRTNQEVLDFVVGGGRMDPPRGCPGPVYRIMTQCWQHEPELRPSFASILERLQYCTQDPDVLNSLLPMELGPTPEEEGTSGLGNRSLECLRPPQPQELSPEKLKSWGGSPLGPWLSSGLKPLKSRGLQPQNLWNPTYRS
Chain of Cyclin-dependent kinase 8 (P49336 whole entry): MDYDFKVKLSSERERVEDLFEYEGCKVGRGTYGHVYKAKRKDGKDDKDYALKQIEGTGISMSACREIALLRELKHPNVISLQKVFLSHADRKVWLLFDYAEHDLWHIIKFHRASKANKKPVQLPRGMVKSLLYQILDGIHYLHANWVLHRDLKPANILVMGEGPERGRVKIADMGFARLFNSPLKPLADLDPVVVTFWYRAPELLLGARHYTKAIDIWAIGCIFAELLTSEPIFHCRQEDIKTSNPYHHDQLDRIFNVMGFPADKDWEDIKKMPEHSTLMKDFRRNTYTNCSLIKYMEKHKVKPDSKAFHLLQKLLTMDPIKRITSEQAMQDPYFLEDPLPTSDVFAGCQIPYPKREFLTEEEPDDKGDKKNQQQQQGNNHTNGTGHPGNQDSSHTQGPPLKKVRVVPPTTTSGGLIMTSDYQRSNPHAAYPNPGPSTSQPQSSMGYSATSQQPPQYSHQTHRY

## O=C(NC1=C(Nc2ccc(F)cc2)C(=O)c2ccccc2C1=O)c1ccc(Cl)cc1
[1]
  IC50: 10.2 µM (active)

## Oc1nc(Nc2ccc(F)cc2)cc2ccccc12
[1]
  IC50: 6.03 µM (active)

## CN(C)c1cc(N/N=C\c2ccccc2)nc(N(C)C)n1
[1]
  IC50: 18.8 µM (active)

## O=C1Nc2cc(-c3ccc(O)cc3)ccc2C1=Cc1ccc[nH]1
[2]
  Ki: 1.26 µM (active)
[3]
  Ki: 0.501 µM (active)
[4]
  Ki: 0.02 µM (active)
[5]
  Ki: 0.00794 µM (active)
[6]
  Ki: 0.158 µM (active)
[7]
  Ki: > 3.16 µM (inactive)
[8]
  Ki: 0.631 µM (active)
[9]
  Ki: 0.0794 µM (active)
[10]
  Ki: > 3.98 µM (inactive)
[11]
  Ki: 0.02 µM (active)
[12]
  Ki: 0.00398 µM (active)
[13]
  Ki: 0.251 µM (active)
[14]
  Ki: > 3.98 µM (inactive)

## NC(COc1cncc(-c2ccc3c(c2)C(=Cc2ccc[nH]2)C(=O)N3)c1)Cc1ccccc1 (configuration not stated)
[2]
  Ki: 0.00794 µM (active)
[3]
  Ki: 0.00251 µM (active)
[4]
  Ki: 0.251 µM (active)
[5]
  Ki: 0.00631 µM (active)
[6]
  Ki: 0.00316 µM (active)
[7]
  Ki: 1.26 µM (active)
[8]
  Ki: 0.00126 µM (active)
[9]
  Ki: 0.158 µM (active)
[10]
  Ki: 1.58 µM (active)
[11]
  Ki: 0.00501 µM (active)
[12]
  Ki: 0.126 µM (active)
[13]
  Ki: 0.631 µM (active)
[14]
  Ki: 0.01 µM (active)

## O=C1Cc2cc(-c3ccccc3)cnc2N1
[2]
  Ki: 79.4 µM (active)
[3]
  Ki: 15.8 µM (active)
[4]
  Ki: 3.98 µM (active)
[5]
  Ki: 20 µM (active)
[6]
  Ki: 50.1 µM (active)
[7]
  Ki: 39.8 µM (active)
[8]
  Ki: 15.8 µM (active)
[9]
  Ki: 15.8 µM (active)
[10]
  Ki: 25.1 µM (active)
[11]
  Ki: 79.4 µM (active)
[12]
  Ki: 15.8 µM (active)
[13]
  Ki: 50.1 µM (active)
[14]
  Ki: 39.8 µM (active)
